Source: patent US20090233342A1, “HETEROLOGOUS EXPRESSION OF PROTEORHODOPSIN PHOTOSYSTEM” (priority 2007, published 2009)

How the values were obtained:
HF10—19P19 cells = test: Proton-pumping assay (light-driven pH change of cell suspension); type: cell-based, Escherichia coli; conditions: PR^+ HF10—19P19 cells; CCCP 25 μM (2 h dark preincubation), DCCD 1 mM (20 h dark preincubation)
Procedure: FIG. 3. Light-activated, PR-enabled photophosphorylation in E. coli. (A) Diagram of the proposed mechanism of PR-dependent ATP synthesis. The effects of the inhibitors used are indicated. (B) Proton-pumping assays with HF10—19P19 cells. pH measurements are expressed as the pH change respect to the pH at time 0 for each sample. CCCP, 25 μM; DCCD, 1 mM. Gray boxes indicate dark periods. (C) ATP assays with HF10—19P19 cells. Results are expressed as the difference between the ATP level in the light and the ATP level in the dark, ΔATP, for each treatment.
Fosmid Library. The HOT—10m fosmid library screened in this work has been described previously (14). It contains DNA from a planktonic sample collected 10 m below the surface at the ALOHA station (22°45′ N, 158°W) of the Hawaii Ocean Time series (HOT) cloned into the copy-controlled pCC1FOS fosmid vector (Epicentre Biotechnologies, Madison, Wis.). The library host, E. coli EPI300 (Epicentre Biotechnologies), supports the copy-control option of pCC1FOS. Screening for PR Expression. High-density colony macroarrays [12,280 clones of the HOT—10m library (ref. 14)] were prepared on a Performa II filter (Genetix Ltd., Boston, Mass.) by using a Q-PixII robot (Genetix Ltd.). […] The color phenotype of individual Tn5-insertion clones was analyzed on LB plates containing chloramphenicol, kanamycin, and 0.02% L-arabinose as above. […]

PR^+ E. coli cells = type: cell-based, Escherichia coli; conditions: for effect on photophosphorylation (light-driven ATP synthesis, ΔATP light minus dark): PR^+ HF10—19P19 cells, CCCP 25 μM (2 h dark preincubation), DCCD 1 mM (20 h dark preincubation)

Row | SMILES | effect on light-driven decrease in pH (PR-catalyzed proton translocation) (HF10—19P19 cells) | effect on photophosphorylation (light-driven ATP synthesis, ΔATP light minus dark) (PR^+ E. coli cells) | net gain of ATP by oxidative phosphorylation (PR^+ E. coli cells; 5 min after addition of 0.2% succinate to PR^+ cells in the dark, data not shown)
1 | C(=NC1CCCCC1)=NC1CCCCC1 [DCCD, N,N′-dicyclohexylcarbodiimide] | did not affect | completely abolished | 
2 | O=C(O)CCC(=O)O [succinate] |  |  | 9×10^5 ATP molecules per live cell
3 | N#CC(C#N)=NNc1cccc(Cl)c1 [CCCP, carbonylcyanide m-chlorophenylhydrazone] | completely abolished | completely abolished | 
